# Reference: US7842294B2, “Proteins belonging to the Bcl-2 family and fragments thereof, and their use in cancer patients” (Survac APS, priority 2003, dated 2010)
# Tested on: peptide epitope-specific interferon-γ releasing effector cells in PBL
# Assay: IFN-γ ELISPOT on PBL stimulated once in vitro with peptide
# Type: cell-based, human
# Conditions: for healthy individuals with CTL response: 12 healthy HLA-A2 positive individuals; for CTL response in cancer patients of different origin (in words): PBL from HLA-matched cancer patients; for breast cancer patients hosting an immune response: eighteen HLA-A2+ breast cancer patients; for breast cancer patients hosting an immune response / melanoma patients hosting an immune response: responder >25 spots per 10^5 cells; for pancreatic cancer patients with CTL response: two HLA-A2 positive pancreatic cancer patients; for melanoma patients hosting an immune response: six HLA-A2+ melanoma patients; for pancreatic cancer patients with response: two HLA-A3+ pancreatic cancer patients
# Experimental: To extend the sensitivity of the ELISPOT assay, PBL were stimulated once in vitro prior to analysis. At day 0, PBL or crushed lymph nodes were thawed and plated in 2 ml/well at a concentration of 2×10^6 cells in 24-well plates (Nunc, Denmark) in X-vivo medium (Bio Whittaker, Walkersville, Md.), 5% heat-inactivated human serum, and 2 mM of L-glutamine in the presence of 10 μM of peptide. Two days later 20 IU/ml recombinant interleukin-2 (IL-2) (Chiron, Ratingen, Germany) was added to the cultures. The cultured cells were tested for reactivity in the ELISPOT on day 12.
# The ELISPOT assay was used to quantify peptide epitope-specific interferon-γ releasing effector cells as described previously (4). Briefly, nitrocellulose bottomed 96-well plates (MultiScreen MAIP N45, Millipore, Hedehusene, Denmark) were coated with anti-IFN-γ antibody (1-D1K, Mabtech, Nacka, Sweden). The wells were washed, blocked by X-vivo medium, and cells added in duplicates at different cell concentrations. Peptides were then added to each well and the plates were incubated overnight. The following day, media was discarded and the wells were washed prior to addition of biotinylated secondary antibody (7-B6-1-Biotin, Mabtech). The plates were incubated for 2 hours, washed and Avidin-enzyme conjugate (AP-Avidin, Calbiochem, Life Technologies) was added to each well. Plates were incubated at RT for 1 hour and the enzyme substrate NBT/BCIP (Gibco, Life Technologies) was added to each well and incubated at RT for 5-10 min. The reaction was terminated by washing with tap-water upon the emergency of dark purple spots. The spots were counted using the ImmunoSpot® Series 2.0 Analyzer (CTL Analyzers, LLC, Cleveland, US) and the peptide specific CTL frequency could be calculated from the numbers of spot-forming cells. All assays were performed in triplicates for each peptide antigen.
# [1] = four HLA-A1+ breast cancer patients
# [2] = seven HLA-A1+ melanoma patients
# [3] = six healthy HLA-A1+ individuals
# [4] = six HLA-A3+ breast cancer patients, 3×10^5 cells per well, Mcl-1 study
sequence,measurement,setting,value
VLVSRIAAWM (Peptide derived from Bcl-XL) [Bcl-XL161-170],healthy individuals with CTL response,,no responses were detected
same,CTL response in cancer patients of different origin (in words),,strong and frequent CTL responses
same,breast cancer patients hosting an immune response,,six
same,pancreatic cancer patients with CTL response,,one
QSLEIISRY (Peptide derived from Mcl-1) [Mcl-1177-185],CTL response in cancer patients of different origin (in words),,CTL responses were detected
same,breast cancer patients with response,[1],three out of four
same,melanoma patients with response,[2],one out of seven
same,healthy donors with response,[3],no responses were detected
PAEEEEDDLY (Peptide derived from Mcl-1) [Mcl-1166-175],CTL response in cancer patients of different origin (in words),,CTL responses were detected
same,breast cancer patients with response,[1],one of these
same,melanoma patients with response,[2],another of these
same,healthy donors with response,[3],no responses were detected
RLKRDWLVK (Modified Mcl-1 peptide) [Mcl-1300-308L2],breast cancer patients with spontaneous immune response,"number examined not given, data not shown",two
RIAAWMATYL (Peptide derived from Bcl-XL) [Bcl-XL165-174],healthy individuals with CTL response,,no responses were detected
same,CTL response in cancer patients of different origin (in words),,strong and frequent CTL responses
same,breast cancer patients hosting an immune response,,four
same,melanoma patients hosting an immune response,,two
same,pancreatic cancer patients with CTL response,,one
RLLFFAPTR (Peptide derived from Mcl-1) [Mcl-195-103],healthy donors with response,10 healthy HLA-A3+ individuals,no responses were detected
same,CTL response in cancer patients of different origin (in words),,strong and frequent CTL responses
same,breast cancer patients with response,[4],five
same,B-CLL patients with response,six HLA-A3+ patients suffering from B-CLL,two
same,pancreatic cancer patients with response,Mcl-1 study,two out of two
RIAAWMATY (Peptide derived from Bcl-XL) [Bcl-XL165-173],multiple myeloma patients with response,HLA-A3+ multiple myeloma patients,one out of four
same,CTL response in cancer patients of different origin (in words),,strong and frequent CTL responses
same,breast cancer patients with response,"five HLA-A3+ breast cancer patients, 10^5 cells per well",four out of five
same,melanoma patients with response,four HLA-A3+ melanoma patients,four out of four
same,healthy individuals with response,seven HLA-A3+ healthy individuals,not able to detect a response
same,pancreatic cancer patients with response,Bcl-XL study,two out of two
WMATYLNDHL (Peptide derived from Bcl-XL) [Bcl-XL169-178],CTL response in cancer patients of different origin (in words),,weak spontaneous CTL response
VAFFSFGGAL (Peptide derived from Bcl-XL) [Bcl-XL141-150],healthy individuals with CTL response,,no responses were detected
same,CTL response in cancer patients of different origin (in words),,strong and frequent CTL responses
same,breast cancer patients hosting an immune response,,Four out of eighteen
same,melanoma patients hosting an immune response,,not able to detect a response
same,pancreatic cancer patients with CTL response,,one of the two
RTKRDWLVK (Peptide derived from Mcl-1) [Mcl-1300-308],healthy donors with response,10 healthy HLA-A3+ individuals,no responses were detected
same,CTL response in cancer patients of different origin (in words),,strong and frequent CTL responses
same,breast cancer patients with response,[4],three
same,pancreatic cancer patients with response,Mcl-1 study,one of these
TAYQSFEQV (Peptide derived from Bcl-XL) [Bcl-XL118-126],CTL response in cancer patients of different origin (in words),,weak spontaneous CTL response
